In patent US6514981B1, “Methods of modulating tyrosine protein kinase function with indolinone compounds” (Sugen, Inc., priority 1998, dated 2003):

How the values were obtained:
Assay type in all cases: cell-based
[1] = target: T1, chimeric receptor containing the EGFR extracellular domain and intracellular HER2 kinase domain (Homo sapiens, UniProt P04626); experiment: EGF receptor-HER2 phosphorylation assay in whole EGFR-NIH3T3 cells (ELISA); conditions: NIH3T3 cells with chimeric receptor, EGF stimulation
T1 construct: P00533 (Epidermal growth factor receptor)
Method: HER2 kinase activity in whole EGFR-NIH3T3 cells was measured as described below. 1. Coat ELISA plates (Corning, 96 well, Cat. #25805-96) with 05-101 antibody at 0.5 µg per well in PBS, 100 μL final volume/well, and store overnight at 4° C. Coated plates are good for up to 10 days when stored at 4° C. 1. An NIH3T3 cell line overexpressing a chimeric receptor containing the EGFR extracellular domain and intracellular HER2 kinase domain can be used for this assay. 3. Resuspend cells in seeding medium (DMEM, 0.5% bovine serum), and count the cells using trypan blue. Viability above 90% is acceptable. Seed cells in DMEM medium (0.5% bovine serum) at a density of 10,000 cells per well, 100 μL per well, in a 96 well microtiter plate. Incubate seeded cells in 5% CO2 at 37° C. for about 40 hours. 1. Check seeded cells for contamination using an inverted microscope. […] The maximum phosphotyrosine signal is determined by subtracting the value of the negative controls from the positive controls. The percent inbibitation of phosphotyrosine content for extract-containing wells is then calculated, after subtraction of the negative controls. The IC50 values measured in the EGF receptor-HER2 phosphorylation assay for the compound of formula VI are depicted in Table 6: […]

3T3EGFR = experiment: BrdU incorporation assay, 3T3EGFR, PDGF
SKOV3 cells = experiment: Growth of SKOV3 cells (SRB); conditions: Homo sapiens, SK-OV-3, 2%
From the text: The assay is the same as the assay set forth in EXAMPLE 10, except that SKOV3 cells (ATCC HTB77) are used instead of A431 cells.
Compound of formula VI inhibited the growth rate of SKOV3 cells as illustrated in Table 10.

C6 cells = experiment: Growth of C6 cells (SRB); conditions: Rattus norvegicus, 2%
From the text: The assay is the same as the assay set forth in EXAMPLE 10, except that C6 cells (ATCC 107) are used instead of A431 cells.
Compound of formula VI inhibited the growth rate of C6 cells as illustrated in Table 11.

IGF-1 receptor = target: T2, IGF-1 receptor (Homo sapiens, UniProt P08069); experiment: IGF-1 receptor phosphorylation assay in cells (ELISA); conditions: 3T3-L1/IGF-1R cells, IGF-1 stimulation
T2 construct: expressed in transfected cells; host or cells: 3T3-L1/IGF-1R (also written NIH3T3/IGF-1R)
Method: The following protocol was used to measure phosphotyrosine level on IGF-1 receptor, which indicates IGF-1 receptor tyrosine kinase activity.
a. The cell line used in this assay is 3T3-L1/IGF-1R, a cell line genetically engineered to overexpresses IGF-1 receptor.
2. Resuspend the cells in fresh DMEM+10% FBS+2mM L-Glutamine, and transfer to 96-well tissue culture plate (Corning, 250806-96) at 20,000 cells/well (100 μL/well). Incubate for 1 day then replace medium to serum-free medium (90/μL) and incubate in 5% CO2 and 37° C. overnight.
1. Coat the ELISA plate (Corning 25805-96) with Anti-IGF-1R Antibody at 0.5 μg/well in 100 μL PBS at least 2 hours.
2. Dilute drug stock (in 100% DMSO) 1:10 with DMEM in 96-well poly-propylene plate, and transfer 10 μL/well of this solution to the cells to achieve final drug dilution 1:100, and final DMSO concentration of 1.0%. Incubate the cells in 5% C02 at 37° C. for 2 hours.
4. After drug incubation for two hours, transfer 10 μL/well of 200 nM IGF-1 Ligand m PBS to the cells (Final Conc.=20 nM), and incubate at 5% CO2 at 37° C. for 10 minutes.
5. Remove media and add 100 μL/well HNTG* and shake for 10 minutes. Look at cells under microscope to see if they are adequately lysed.
6. […]
The IC50 values measured in the IGF-1 receptor phosphorylation assay for the compound of formula VI are depicted in Table 4: […]

T1 sequence (P04626 720-987 limits assumed, change not shown): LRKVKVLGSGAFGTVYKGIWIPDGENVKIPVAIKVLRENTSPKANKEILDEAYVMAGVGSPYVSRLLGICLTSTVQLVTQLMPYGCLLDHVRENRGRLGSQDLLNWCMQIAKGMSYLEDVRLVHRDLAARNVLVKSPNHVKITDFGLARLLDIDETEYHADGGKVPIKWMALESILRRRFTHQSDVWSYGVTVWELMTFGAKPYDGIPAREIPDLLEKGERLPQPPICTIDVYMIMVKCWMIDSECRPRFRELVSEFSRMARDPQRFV
T2 sequence (P08069 31-1367): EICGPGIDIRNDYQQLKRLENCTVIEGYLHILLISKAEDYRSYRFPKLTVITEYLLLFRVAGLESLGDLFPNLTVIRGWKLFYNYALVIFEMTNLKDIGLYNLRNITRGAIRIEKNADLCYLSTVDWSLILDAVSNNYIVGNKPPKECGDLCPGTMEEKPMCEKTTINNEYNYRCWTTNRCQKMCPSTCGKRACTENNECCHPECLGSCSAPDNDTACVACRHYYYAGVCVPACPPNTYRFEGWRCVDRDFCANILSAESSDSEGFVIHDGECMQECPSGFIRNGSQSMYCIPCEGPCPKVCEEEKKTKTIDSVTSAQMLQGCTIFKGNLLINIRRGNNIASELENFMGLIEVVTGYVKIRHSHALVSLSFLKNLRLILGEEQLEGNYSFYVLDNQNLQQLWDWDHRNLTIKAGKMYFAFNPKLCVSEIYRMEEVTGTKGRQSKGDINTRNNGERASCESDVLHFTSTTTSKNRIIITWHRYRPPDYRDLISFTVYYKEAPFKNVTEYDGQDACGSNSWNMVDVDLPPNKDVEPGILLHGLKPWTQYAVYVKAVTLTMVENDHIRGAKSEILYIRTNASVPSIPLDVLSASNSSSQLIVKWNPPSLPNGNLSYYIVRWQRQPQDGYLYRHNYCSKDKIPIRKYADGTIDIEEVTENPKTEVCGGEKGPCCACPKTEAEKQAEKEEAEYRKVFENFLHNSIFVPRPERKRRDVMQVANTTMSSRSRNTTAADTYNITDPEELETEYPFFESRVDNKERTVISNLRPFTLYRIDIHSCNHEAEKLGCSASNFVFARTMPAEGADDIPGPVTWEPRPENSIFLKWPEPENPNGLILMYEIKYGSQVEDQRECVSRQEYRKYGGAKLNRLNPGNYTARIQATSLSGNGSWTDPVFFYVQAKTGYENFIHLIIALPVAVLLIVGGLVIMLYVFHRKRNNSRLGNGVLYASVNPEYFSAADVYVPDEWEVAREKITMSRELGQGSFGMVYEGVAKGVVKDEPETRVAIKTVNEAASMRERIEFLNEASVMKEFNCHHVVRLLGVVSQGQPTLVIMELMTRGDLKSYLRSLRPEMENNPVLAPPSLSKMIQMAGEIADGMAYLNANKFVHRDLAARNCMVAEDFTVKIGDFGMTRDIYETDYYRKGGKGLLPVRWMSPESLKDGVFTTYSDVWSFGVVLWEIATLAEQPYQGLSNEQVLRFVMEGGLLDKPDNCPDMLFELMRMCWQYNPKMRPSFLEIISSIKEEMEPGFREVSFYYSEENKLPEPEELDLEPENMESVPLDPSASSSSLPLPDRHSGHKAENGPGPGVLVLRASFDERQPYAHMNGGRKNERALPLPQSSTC

IC50 [1]: 8.72 µM
IC50 (SKOV3 cells): 1.08 µM
IC50 (IGF-1 receptor): 8.52 µM
SMILES: Cc1cc(/C=C2/C(=O)Nc3ccccc32)c(C)c2c1[nH]c1ccccc12 [VI]
IC50 (3T3EGFR): 7 µM
IC50 (C6 cells): 1.55 µM
